Measurements reported in patent US20250041433A1, “PROTEIN-ANTIVIRAL COMPOUND CONJUGATES” (REGENERON PHARMACEUTICALS, INC., priority 2021, published 2025).

Test system: H1N1 A/Puerto Rico/08/1934-GFP influenza virus
Test: organism not typed
Format: cell-based, H1N1 A/Puerto Rico/08/1934 influenza virus
Conditions: for IC50: MDCK, 20 h, read-out: Antiviral activity of VX-787 free payloads IC50; for antiviral activity of VX-787 derivatives (in words): free payloads

| Structure (SMILES) | IC50 [nM] | antiviral activity of VX-787 derivatives (in words) |
| --- | --- | --- |
| O=C(O)[C@H]1C2CCC(CC2)[C@@H]1Nc1nc(-c2c(CO)[nH]c3ncc(F)cc23)ncc1F [Compound 15] | 240 | displayed antiviral activity |
| O=C(NO)[C@H]1C2CCC(CC2)[C@@H]1Nc1nc(-c2c[nH]c3ncc(F)cc23)ncc1F [Compound 20a] | 3.77 | displayed antiviral activity |
| O=C(NO)[C@H]1C2CCC(CC2)[C@@H]1Nc1nc(-c2c[nH]c3ncc(F)cc23)nc2sccc12 [Compound 20b] | 9.64 | displayed antiviral activity |
| Cn1ccc2c(N[C@H]3C4CCC(CC4)[C@@H]3C(=O)NO)nc(-c3c[nH]c4ncc(F)cc34)nc21 [Compound 20c] | 13.8 | displayed antiviral activity |
| O=C(NO)[C@H]1C2CCC(CC2)[C@@H]1Nc1nc(-c2n[nH]c3ncc(F)cc23)ncc1F [Compound 57] | 2 | – |
| O=C(NO)[C@H]1C2CCC(CC2)[C@@H]1Nc1nc(-c2n[nH]c3ncc(F)cc23)nc2sccc12 [Compound 62] | 2.19 | – |
